Experimental data published in ChEMBL document CHEMBL1201862, “PubChem BioAssay data set” (2004).
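Results reflect a 48-hour exposure of cells in 96-well plates to compound at five concentrations. The concentration for 50% growth inhibition is given as GI50.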 Calls of active or inactive are those of the source. Rule as the data show it: active = GI50 up to about 1.1 µM and inactive = higher.

Experiments:
Assay in all cases: growth of human tumour cells (NCI), 48 h
[1] = tested on: SK-MEL-5
[2] = tested on: COLO 205
[3] = tested on: UACC-257
[4] = tested on: A498
[5] = tested on: LOX IMVI
[6] = tested on: RXF 393
[7] = tested on: SK-OV-3
[8] = tested on: UACC-62
[9] = tested on: Malme-3M
[10] = tested on: MDA-MB-231
[11] = tested on: SNB-75
[12] = tested on: SR
[13] = tested on: CAKI-1
[14] = tested on: T47D
[15] = tested on: HCC 2998
[16] = tested on: HT-29
[17] = tested on: OVCAR-3
[18] = tested on: OVCAR-5
[19] = tested on: CCRF-CEM

| Structure (SMILES) | GI50 [1] | GI50 [2] | GI50 [3] | GI50 [4] | GI50 [5] | GI50 [6] | GI50 [7] | GI50 [8] | GI50 [9] | GI50 [10] | GI50 [11] | GI50 [12] | GI50 [13] | GI50 [14] | GI50 [15] | GI50 [16] | GI50 [17] | GI50 [18] | GI50 [19] |
| --- | --- | --- | --- | --- | --- | --- | --- | --- | --- | --- | --- | --- | --- | --- | --- | --- | --- | --- | --- |
| Nc1nc(SCc2ccccc2)c2ncn(Cc3ccccc3)c2n1 | > 63 µM (inactive) | > 100 µM (inactive) | > 71 µM (inactive) | > 44.9 µM (inactive) | > 100 µM (inactive) | 62.2 µM (inactive) | > 100 µM (inactive) | > 83 µM (inactive) | > 57.9 µM (inactive) | > 100 µM (inactive) | 35.8 µM (inactive) | > 56.9 µM (inactive) | 30.1 µM (inactive) | > 47.6 µM (inactive) | > 100 µM (inactive) | > 81.8 µM (inactive) | > 67.5 µM (inactive) | > 100 µM (inactive) | – |
| c1ccc(-c2sc(-c3ccccc3)c3c2C2CCC3C2)cc1 | 20 µM (inactive) | 22.9 µM (inactive) | 40.3 µM (inactive) | 53.3 µM (inactive) | 28.8 µM (inactive) | 24.3 µM (inactive) | 64 µM (inactive) | 33.8 µM (inactive) | 31.6 µM (inactive) | 27.6 µM (inactive) | – | 17.4 µM (inactive) | 49.9 µM (inactive) | 38.7 µM (inactive) | – | 18.6 µM (inactive) | 30.6 µM (inactive) | 53.8 µM (inactive) | 43.9 µM (inactive) |
| O=C1/C(=C/c2ccc([N+](=O)[O-])cc2)Oc2cc(O)ccc21 | 21 µM (inactive) | > 10 µM (inactive) | 37.7 µM (inactive) | – | – | 45 µM (inactive) | 25.1 µM (inactive) | 33 µM (inactive) | – | 26.5 µM (inactive) | 32.2 µM (inactive) | 16.9 µM (inactive) | 23.6 µM (inactive) | 28.6 µM (inactive) | 34.6 µM (inactive) | – | 27.5 µM (inactive) | – | 31 µM (inactive) |
| COc1cc(C2C3=C(COC3=O)Oc3cc4c(cc32)OCO4)cc(OC)c1O (stereo not drawn) | < 0.01 µM (active) | < 0.0133 µM (active) | – | – | < 0.0112 µM (active) | < 0.01 µM (active) | < 0.012 µM (active) | < 0.01 µM (active) | < 0.01 µM (active) | < 0.0246 µM (active) | < 0.01 µM (active) | < 0.01 µM (active) | < 0.01 µM (active) | 0.0157 µM (active) | < 0.0209 µM (active) | < 0.0147 µM (active) | 0.0127 µM (active) | 0.0236 µM (active) | 0.0134 µM (active) |
| Cc1cc(S(=O)(=O)[N-]/C(=N/S(=O)(=O)c2cc(Cl)sc2Cl)[n+]2ccc(N(C)C)cc2)c(S)cc1Cl | 77.8 µM (inactive) | – | > 100 µM (inactive) | 26.7 µM (inactive) | > 100 µM (inactive) | 46.3 µM (inactive) | 42.9 µM (inactive) | – | – | 77.3 µM (inactive) | – | 39.4 µM (inactive) | 60.3 µM (inactive) | > 100 µM (inactive) | 60.7 µM (inactive) | 30.6 µM (inactive) | 96.6 µM (inactive) | 49.3 µM (inactive) | 64 µM (inactive) |
| O=C(c1ccccc1)c1ccc2[nH]c(-c3c(Cl)c(Cl)c(Cl)c(Cl)c3C(=O)N/N=C/c3ccc(Cl)cc3)nc2c1 | 17.2 µM (inactive) | 28.1 µM (inactive) | 43.3 µM (inactive) | – | 34 µM (inactive) | 22.5 µM (inactive) | 41.1 µM (inactive) | – | 37.4 µM (inactive) | 20.7 µM (inactive) | 47 µM (inactive) | 28.2 µM (inactive) | 61.8 µM (inactive) | 18.3 µM (inactive) | – | 35.2 µM (inactive) | 17.5 µM (inactive) | 64.7 µM (inactive) | 18.3 µM (inactive) |
| COc1ccc(CNc2nc(NCc3ccc(OC)c(OC)c3)nc(NC3CCCCC3)n2)cc1 | 0.716 µM (active) | 2.34 µM (inactive) | > 100 µM (inactive) | – | 5.33 µM (inactive) | 2.23 µM (inactive) | > 100 µM (inactive) | 2.3 µM (inactive) | 37.2 µM (inactive) | 5.13 µM (inactive) | 3.38 µM (inactive) | 0.611 µM (active) | 3.17 µM (inactive) | 4.48 µM (inactive) | – | 2.88 µM (inactive) | 5.38 µM (inactive) | 4.88 µM (inactive) | 3.66 µM (inactive) |
| O=C(O)c1cc(CC2Cc3cc4c(cc3C2=O)CCC4)cc2c1CCC2 (stereo not drawn) | – | > 100 µM (inactive) | > 100 µM (inactive) | > 100 µM (inactive) | 84.1 µM (inactive) | – | > 100 µM (inactive) | 43.2 µM (inactive) | > 100 µM (inactive) | 76.4 µM (inactive) | 35.6 µM (inactive) | 67.1 µM (inactive) | > 100 µM (inactive) | > 100 µM (inactive) | > 100 µM (inactive) | > 100 µM (inactive) | 94.4 µM (inactive) | > 100 µM (inactive) | 59.3 µM (inactive) |
| O=C(O)/C=C/c1ccc(Oc2ccccc2C(=O)O)o1 | > 10 µM (inactive) | > 10 µM (inactive) | > 10 µM (inactive) | – | > 10 µM (inactive) | – | > 10 µM (inactive) | > 10 µM (inactive) | > 10 µM (inactive) | > 10 µM (inactive) | > 10 µM (inactive) | > 10 µM (inactive) | > 10 µM (inactive) | > 10 µM (inactive) | > 10 µM (inactive) | > 10 µM (inactive) | – | – | > 10 µM (inactive) |
| Cc1ccc(N/N=C/C2=CC(C)(C)C(C#N)(C#N)C(O)=C2C#N)cc1 | 40.7 µM (inactive) | 26.9 µM (inactive) | 38.8 µM (inactive) | – | 65.8 µM (inactive) | 33.2 µM (inactive) | 58.2 µM (inactive) | 30.4 µM (inactive) | > 100 µM (inactive) | 44.6 µM (inactive) | 45.5 µM (inactive) | 14.3 µM (inactive) | 31.6 µM (inactive) | 67.3 µM (inactive) | 37.8 µM (inactive) | 37.8 µM (inactive) | 36.6 µM (inactive) | > 100 µM (inactive) | 24.5 µM (inactive) |
| O=[N+]([O-])/C(C(Cl)=C(Cl)Cl)=C(/Nc1ccccc1)SCc1ccccc1 | 21.6 µM (inactive) | 21.9 µM (inactive) | 24 µM (inactive) | 25.9 µM (inactive) | 20.5 µM (inactive) | 19.4 µM (inactive) | 52 µM (inactive) | 20 µM (inactive) | 16.4 µM (inactive) | 19.9 µM (inactive) | – | 22.3 µM (inactive) | 31.9 µM (inactive) | 34.6 µM (inactive) | 24.3 µM (inactive) | 29.6 µM (inactive) | 15 µM (inactive) | 20 µM (inactive) | 15 µM (inactive) |
| CC(C)=CCNc1ncnc2c1ncn2CCC(=O)O | > 100 µM (inactive) | > 100 µM (inactive) | – | > 100 µM (inactive) | > 100 µM (inactive) | > 100 µM (inactive) | > 100 µM (inactive) | > 100 µM (inactive) | > 100 µM (inactive) | > 100 µM (inactive) | > 100 µM (inactive) | > 100 µM (inactive) | – | > 100 µM (inactive) | > 100 µM (inactive) | > 100 µM (inactive) | > 100 µM (inactive) | > 100 µM (inactive) | > 100 µM (inactive) |
| CCOC(=O)c1cc(C)nc2c1c(=O)n(-c1ccccc1)c(=O)n2CCCCN1CCN(c2ccccc2)CC1 | 38.6 µM (inactive) | 60 µM (inactive) | 27.8 µM (inactive) | 27.6 µM (inactive) | 61.1 µM (inactive) | > 100 µM (inactive) | > 100 µM (inactive) | 70.3 µM (inactive) | > 100 µM (inactive) | 48.1 µM (inactive) | > 100 µM (inactive) | 19 µM (inactive) | 1.53 µM (inactive) | 24.3 µM (inactive) | 41.1 µM (inactive) | 36.6 µM (inactive) | – | > 100 µM (inactive) | – |
| O=C1CSc2nnc(CCCCCCCCc3nnc4n3NC(=O)CS4)n2N1 | – | > 100 µM (inactive) | 42.6 µM (inactive) | > 100 µM (inactive) | – | – | > 100 µM (inactive) | > 100 µM (inactive) | 31.9 µM (inactive) | 69.3 µM (inactive) | 32.1 µM (inactive) | 30.8 µM (inactive) | > 100 µM (inactive) | > 100 µM (inactive) | > 100 µM (inactive) | 23.1 µM (inactive) | > 100 µM (inactive) | > 100 µM (inactive) | 15.3 µM (inactive) |
| CC(=O)OCC1OC(n2c(C)c(/N=N/c3ccc(Cl)cc3)c(C)c(C#N)c2=S)C(OC(C)=O)C(OC(C)=O)C1OC(C)=O (stereo not drawn) | 64.3 µM (inactive) | > 100 µM (inactive) | 62.8 µM (inactive) | – | 86.3 µM (inactive) | 18.2 µM (inactive) | 36.3 µM (inactive) | 38.4 µM (inactive) | > 100 µM (inactive) | 65.2 µM (inactive) | 20.1 µM (inactive) | > 100 µM (inactive) | 50.8 µM (inactive) | > 100 µM (inactive) | > 100 µM (inactive) | > 100 µM (inactive) | > 100 µM (inactive) | 31.8 µM (inactive) | > 100 µM (inactive) |
| O=C(O)C[n+]1cn(NC(=O)Cc2ccccc2)cn1 | > 10 µM (inactive) | > 10 µM (inactive) | > 10 µM (inactive) | > 10 µM (inactive) | > 10 µM (inactive) | – | > 10 µM (inactive) | 0.664 µM (active) | > 10 µM (inactive) | > 10 µM (inactive) | > 10 µM (inactive) | > 10 µM (inactive) | > 10 µM (inactive) | > 10 µM (inactive) | > 10 µM (inactive) | > 10 µM (inactive) | > 10 µM (inactive) | > 10 µM (inactive) | > 10 µM (inactive) |
